The subject of the first experiment is HCT116 MTAP-/- cells. Kind of experiment: Cell growth inhibition test (SRB staining). The class given is cell-based. The settings on record: HCT116 MTAP-/- cells, 0.64 nM - 2,000 nM, 6 dose points, 6 days, SRB staining, absorbance at 540 nm; read-out: HCT116 MTAP-/- cell growth inhibition (GI50). Here is the method:
The synthetic compounds above were tested for cell growth inhibition against HCT116 cells.
HCT116 MTAP-/- (homozygous knockout of MTAP gene in HCT116 MTAP-WT cells by CRISPER/Cas9 method) cells were maintained in RPMI1640 medium containing 10 % FBS and 1 % penicillin-streptomycin. Approximately 5×10^2 cells were seeded in a 96-well plate and treated with a test compound. (0.64 nM - 2,000 nM, 6 dose points for HCT116 MTAP-/- cells for 5x and 6 days) cell growth was measured by SRB staining and absorbance was detected at 540 nm on a Synergy™ NEO microplate reader. The 50 % growth inhibition value (GI50) of the cell line was calculated using GraphPad Prism V9 software.
In the case of “7-chloro-2-(4-methoxyphenyl)-1-methyl-5-(o-tolyl)-1,5-dihydro-4H-imidazo[4,5-c]quinolin-4-one [Compound 10]”, the GI50 was < 100 nM.

Staying with this experiment, now noted: Homo sapiens, HCT-116, 144 h, read-out: HCT116 MTAP-/- cell growth inhibition (GI50, nM).
As for `Cn1c(Cc2ccccc2)nc2c(=O)n(-c3ccccc3)c3cc(Cl)ccc3c21` [Compound 1, 2-benzyl-7-chloro-1-methyl-5-phenyl-1,5-dihydro-4H-imidazo[4,5-c]quinolin-4-one], the GI50 lay in the range of 100 to 500 nM.

Still in this experiment, the particulars now being: Homo sapiens, HCT-116, 144 h; HCT116 MTAP-/- cells, 0.64 nM - 2,000 nM, 6 dose points, 6 days, SRB staining, absorbance at 540 nm; read-out: HCT116 MTAP-/- cell growth inhibition (GI50).
Take `COc1ccc(Cc2nc3c(=O)n(-c4ccccc4)c4cc(Cl)ccc4c3n2C)cc1` [Compound 2, 7-chloro-2-(4-methoxybenzyl)-1-methyl-5-phenyl-1,5-dihydro-4H-imidazo[4,5-c]quinolin-4-one]: the GI50 was < 100 nM.

On to `Cn1c(Cc2ccc(O)cc2)nc2c(=O)n(-c3ccccc3)c3cc(Cl)ccc3c21` [Compound 3, 7-chloro-2-(4-hydroxybenzyl)-1-methyl-5-phenyl-1,5-dihydro-4H-imidazo[4,5-c]quinolin-4-one], for which the GI50 was > 1000 nM.

`COc1cccc(Cc2nc3c(=O)n(-c4ccccc4)c4cc(Cl)ccc4c3n2C)c1` [Compound 4, 7-chloro-2-(3-methoxybenzyl)-1-methyl-5-phenyl-1,5-dihydro-4H-imidazo[4,5-c]quinolin-4-one]: the GI50 is < 100 nM.

In the case of `COc1ccccc1Cc1nc2c(=O)n(-c3ccccc3)c3cc(Cl)ccc3c2n1C` [Compound 5, 7-chloro-2-(2-methoxybenzyl)-1-methyl-5-phenyl-1,5-dihydro-4H-imidazo[4,5-c]quinolin-4-one], the GI50 was in the range of 100 to 500 nM.

In the case of `Cn1c(Cc2ccc(Cl)cc2)nc2c(=O)n(-c3ccccc3)c3cc(Cl)ccc3c21` [Compound 6, 7-chloro-2-(4-chlorobenzyl)-1-methyl-5-phenyl-1,5-dihydro-4H-imidazo[4,5-c]quinolin-4-one], the GI50 lay in the range of 100 to 500 nM.

Regarding `Cn1c(Cc2ccncc2)nc2c(=O)n(-c3ccccc3)c3cc(Cl)ccc3c21` [Compound 7, 7-chloro-1-methyl-5-phenyl-2-(pyridin-4-ylmethyl)-1,5-dihydro-4H-imidazo[4,5-c]quinolin-4-one], the GI50 was > 1000 nM.

Consider `COc1ccc(Cc2nc3c(=O)n(-c4ccccc4)c4cc(Cl)ccc4c3n2C)cc1OC` [Compound 8, 7-chloro-2-(3,4-dimethoxybenzyl)-1-methyl-5-phenyl-1,5-dihydro-4H-imidazo[4,5-c]quinolin-4-one], for which the GI50 lay in the range of 100 to 500 nM.

Take `Cn1c(CCc2ccccc2)nc2c(=O)n(-c3ccccc3)c3cc(Cl)ccc3c21` [Compound 9, 7-chloro-1-methyl-2-phenethyl-5-phenyl-1,5-dihydro-4H-imidazo[4,5-c]quinolin-4-one]: the GI50 is > 1000 nM.

Regarding `O=c1c2nc(Cc3ccccc3)[nH]c2c2ccc(Cl)cc2n1-c1ccccc1` [Compound 11, 2-benzyl-7-chloro-5-phenyl-1,5-dihydro-4H-imidazo[4,5-c]quinolin-4-one], the GI50 fell in the range of 500 to 1000 nM.

In the case of `Cn1c(Cn2ccnc2)nc2c(=O)n(-c3ccccc3)c3cc(Cl)ccc3c21` [Compound 12, 2-((1H-imidazol-1-yl)methyl)-7-chloro-1-methyl-5-phenyl-1,5-dihydro-4H-imidazo[4,5-c]quinolin-4-one], the GI50 is > 1000 nM.

On to `COc1ccc(Cc2nc3c(=O)n(-c4ccccc4)c4nc(NCC(F)(F)F)ccc4c3n2C)cc1` [Compound 15, 2-(4-methoxybenzyl)-1-methyl-5-phenyl-7-((2,2,2-trifluoroethyl)amino)-1,5-dihydro-4H-imidazo[4,5-c][1,8]naphthyridin-4-one], for which the GI50 is > 1000 nM.

On to `COc1ccc(Cc2nc3c(=O)n(-c4ccc(Cl)c(F)c4)c4cc(Cl)ccc4c3n2C)cc1` [Compound 16, 7-chloro-5-(4-chloro-3-fluorophenyl)-2-(4-methoxybenzyl)-1-methyl-1,5-dihydro-4H-imidazo[4,5-c]quinolin-4-one], for which the GI50 was > 1000 nM.

As for `COc1ccc(Cc2nc3c(=O)n(-c4ccc(F)c(Cl)c4)c4cc(Cl)ccc4c3n2C)cc1` [Compound 17, 7-chloro-5-(3-chloro-4-fluorophenyl)-2-(4-methoxybenzyl)-1-methyl-1,5-dihydro-4H-imidazo[4,5-c]quinolin-4-one], the GI50 is > 1000 nM.

Source of the values: EP4582423A1, “NOVEL TRICYCLIC DERIVATIVE COMPOUND AND USES THEREOF” (Hanmi Pharm. Co., Ltd., priority 2022, dated 2024).
